Entries after “also recorded” stand apart in the source; their conditions may differ. Oligonucleotides are written 5' to 3', each unit as a sugar letter and its base; * is a phosphorothioate linkage, no mark a phosphodiester; rarer units and linkages stand in square brackets, end groups in braces. Plain capitals give the bases only. e = 2'-O-(2-methoxyethyl) (MOE); [5mC] = 5-methylcytosine

These results are taken from patent US20230302036A1, “COMPOSITIONS FOR TREATMENT OF SPINAL MUSCULAR ATROPHY” (priority 2020, published 2023).

Data set [1] concerns SMA mice (Smn-/-; SMN2 2TG/0). Briefly: Kaplan-Meier survival of severe SMA mice. The data set is classed as in vivo, mouse. To be noted: s.c. ASO1 at P0 and P1 and/or one s.c. VPA 10 µg/g. On the procedure: Kaplan-Meier survival plot (FIG. 4A) and growth curves (FIG. 4B) of SMA mice, following subcutaneous administration at P0 and P1 of 16.8 µg ASO1 (n=18) or saline (n=14), one subcutaneous dose before P3 of 10 µg per g of body weight VPA (n=12), or both treatments together (n=20). ASO1-treated Smn^+/- heterozygote littermates (n=15) served as controls. Scramble (Ctrl) (n=12, 40 trials), VPA (n=13, 50 trials), ASO1 (n=11, 50 trials), ASO1 + VPA (n=17, 68 trials), and untreated heterozygotes (n=12, 36 trials). Statistical significance was analyzed by two-way repeated measures ANOVA. P < 0.05 was considered statistically significant; data are represented as mean + SD. In the righting-reflex test, the time it took a mouse to right itself […] on a flat surface was measured. In the grip-strength test, the angle at which the pups fell from a tablet with a rough to which they held on by their forelimbs was measured.
FIGS. 7A-H show ASO1 and TSA combined treatment in mice. Kaplan-Meier survival plot (FIG. 7A) and growth curves (FIG. 7B) of SMA mice after subcutaneous administration at P0 and P1 of 16.8 µg ASO1 (n=20) or vehicle (n=12), one subcutaneous dose of 10 µg per g of body weight TSA (n=15) at P2, or both treatments together (n=24), are shown. ASO1-treated heterozygotes (n=18) served as controls. Statistical significance was analyzed by two-way repeated measures ANOVA. P < 0.05 was considered statistically significant; data are represented as mean + SD.
All mouse protocols were in accordance with Cold Spring Harbor Laboratory’s Institutional Animal Care and Use Committee guidelines. The mild Hung mouse model (Smn^-^/-; SMN2^2TG/2TG) was the strain FVB.Cg-Smn1^tm1Hung Tg(SMN2)2^Hung/J, purchased from Jackson Laboratory (stock no. 005058). The severe SMA model (Smn^-/-; SMN2^2TG/0) was generated as previously described (Hua et al., Nature 478, 123-126, 2011).
Oligonucleotide solutions in saline were injected subcutaneously into the upper back at P0 and P1 with a […] and 33-gauge custom removable needle (Hamilton) as described (Hua et al., Nature 478, 123-126, 2011). All drugs were injected subcutaneously before P3, contralateral to the oligonucleotide-injection site, with TSA (10 mg/kg) or VPA (10 mg/kg) or vehicle. Mouse tissues and organs, including liver, thigh muscles, kidney, and spinal cord, were snap-frozen in liquid N2 and stored at -70° C.
Introduction of a human SMN2 transgene in an Smn^-/- background rescues embryonic lethality, displaying a range of phenotypes, depending on the SMN2 copy number (Hsieh-Li et al., Nat. Genet. 24, 66-70, 2000; Monani et al., Hum Mol Genet. 12; 333-339, 2000). […]

For data set [2], the system named is H3K9me2 along the human SMN2 transgene. The data set is described as follows: ChIP-qPCR of H3K9me2 along the human SMN2 transgene in brain and liver of P7 SMA mice. Type of data set: in vivo, mouse. To be noted: P7 SMA mice injected with ASO1. On the procedure:
H3K9me2 (left) and total RNAPII (right) distribution along the human SMN2 transgene, assessed by ChIP-qPCR, in brain (FIG. 12A) and liver (FIG. 12B) of P7 SMA mice injected with ASO1. Vertical arrows indicate the approximate location of the target site for ASO1 on the pre-mRNA. Three independent immunoprecipitation replicates were conducted per experiment. Data are represented as mean ± S.D. (n = 3, *p < 0.05, two-tailed Student’s t test).
Approximately 2×10^6 HEK293T cells per sample were treated for 10 min in 1% (v/v) formaldehyde at room temperature to crosslink protein-DNA complexes. Crosslinking was stopped with glycine at a final concentration of 125 mM. Cells were washed twice with cold PBS and swelled on ice for 10 min in 25 mM HEPES pH 8, 1.5 mM MgCl2, 10 mM KCl, 0.1% NP-40, 1 mM DTT and 1× protease inhibitor cocktail set III (Calbiochem). Following Dounce homogenization, the nuclei were collected and resuspended in 1 ml sonication buffer (50 mM HEPES pH 8, 140 mM NaCl, 1 mM EDTA, 0.1% sodium deoxycholate, 0.1% SDS and 1× protease inhibitor cocktail). DNA was sonicated in an ultrasonic bath (Bioruptor Diagenode) to an average length of 200-500 bp. After addition of 1% (v/v) Triton X-100, samples were centrifuged at 15,000 ×g. […] Immunoprecipitated DNA (1.5 µl) and serial dilutions of the 10% input DNA (1:4, 1:20, 1: 100, and 1:500) were analyzed by SYBR-Green real-time qPCR.
In general terms: Real-time PCR tracks product formation cycle by cycle.

The test system of a further data set is SMA. To be noted: VPA plus carnitine; cited from earlier work.

Turning to “ASO1: 5′-ATTCACTTTCATAATGCTGG-3′ 2′-O-methoxyethyl-modified oligonucleotide with phosphorothioate backbone and all 5-methyl cytosines; nusinersen variant with 2-nucleotide extension (antisense eA*eT*eT*e[5mC]*eA*e[5mC]*eT*eT*eT*e[5mC]*eA*eT*eA*eA*eT*eG*e[5mC]*eT*eG*eG)”, in data set [1], the median survival was ~ 20 days, the “mice still alive at P50” value came to 15% and the “survival (in words)” value was “significantly extended”. In data set [2], the “H3K9 dimethylation on the SMN2 transgene in liver and brain” value is “higher H3K9 dimethylation”.
As to `CCCC(CCC)C(=O)O` [VPA, valproic acid], the “survival (in words)” value in data set [1] is recorded as “died before P10; also recorded: lack of an effect per se”. In addition, the “clinical effectiveness in SMA” value in the data set on SMA is given as “failed to demonstrate effectiveness”.
